Experimental data taken from patent US20250268903A1, “RXFP1 AGONISTS” (BRISTOL-MYERS SQUIBB COMPANY, priority 2021, published 2025).

These molecules were tested against T1, human RXFP1 (Homo sapiens, UniProt Q9HBX9) (assay: hRXFP1 HEK293 cAMP assay (HTRF)). Conditions: HEK293 cells stably expressing human RXFP1, 30 min at room temperature.
T1 construct: expressed in transfected cells
T1 sequence (Q9HBX9 1-757): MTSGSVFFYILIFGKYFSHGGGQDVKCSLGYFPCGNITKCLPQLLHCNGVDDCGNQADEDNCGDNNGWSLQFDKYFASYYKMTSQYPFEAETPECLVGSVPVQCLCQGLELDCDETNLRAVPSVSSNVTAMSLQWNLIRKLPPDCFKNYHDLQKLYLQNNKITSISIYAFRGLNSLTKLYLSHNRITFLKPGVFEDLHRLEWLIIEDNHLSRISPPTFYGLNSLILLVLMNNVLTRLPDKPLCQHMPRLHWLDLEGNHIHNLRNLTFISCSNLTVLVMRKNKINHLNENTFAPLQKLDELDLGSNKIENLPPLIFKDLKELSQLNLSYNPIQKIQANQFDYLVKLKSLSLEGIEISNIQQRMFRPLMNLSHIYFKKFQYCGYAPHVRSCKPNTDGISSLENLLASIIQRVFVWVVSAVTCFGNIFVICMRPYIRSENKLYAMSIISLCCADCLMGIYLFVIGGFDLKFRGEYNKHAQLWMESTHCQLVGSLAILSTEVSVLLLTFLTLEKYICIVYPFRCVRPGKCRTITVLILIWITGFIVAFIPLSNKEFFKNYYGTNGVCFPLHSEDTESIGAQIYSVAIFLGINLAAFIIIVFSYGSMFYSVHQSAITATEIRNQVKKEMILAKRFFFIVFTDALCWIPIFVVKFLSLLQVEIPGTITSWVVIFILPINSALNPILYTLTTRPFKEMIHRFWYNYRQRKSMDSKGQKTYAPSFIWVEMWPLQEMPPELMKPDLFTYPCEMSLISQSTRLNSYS
Assay type: cell-based
Method in brief: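 HEK293 cells stably expressing human RXFP1 were suspended in HBSS (Ca/Mg) with 20 mM HEPES, 0.05% BSA and 0.5 mM IBMX, then treated with compounds (0.010 nM–50 μM, 2% DMSO final) for 30 min at room temperature. Intracellular cAMP was measured by HTRF, and potency was derived from 4-parameter logistic fits.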

SMILES | EC50
COc1ccc(CCC(=O)NCC(F)(F)F)cc1C(=O)NC1C2CCC(/C2=C/C(F)(F)F)[C@@H]1C(=O)Nc1ccc(F)c(C(F)(F)F)c1 (stereo partly drawn) [Example 141, (2S,3R,7Z)-N-[4-fluoro-3-(trifluoromethyl)phe-nyl]-3-(2-methoxy-5-{2-[(2,2,2-trifluoroethyl)carba-moyl]ethyl}benzami-do)-7-(2,2,2-trifluoroethylidene)bi-cyclo[2.2.1]heptane-2-carboxamide] | 0.829 µM
CCOC(=O)C1CCCC(c2ccc(OC)c(C(=O)N[C@@H]3C4CCC(/C4=C/C(F)(F)F)[C@@H]3C(=O)Nc3ccc(F)c(C(F)(F)F)c3)c2)C1 (some centres unmarked) [Example 142] | 0.167 µM
CCOC(=O)C1CCC(c2ccc(OC)c(C(=O)NC3C4CCC(/C4=C/C(F)(F)F)[C@@H]3C(=O)Nc3ccc(F)c(C(F)(F)F)c3)c2)CC1 (stereo partly drawn) [Example 143, ethyl 4-(3-{[(2R,3S,7Z)-3-{[4-fluoro-3-(trifluoromethyl)phe-nyl]carbamoyl}-7-(2,2,2-trifluoroethylidene)bi-cyclo[2.2.1]heptan-2-yl]carbamoyl}-4-methoxyphenyl)cyclo-hexane-1-carboxylate] | 0.202 µM
COc1ccc(C2CCCC(C(=O)O)C2)cc1C(=O)NC1C2CCC(/C2=C/C(F)(F)F)[C@@H]1C(=O)Nc1ccc(F)c(C(F)(F)F)c1 (stereo partly drawn) [Example 144, 3-(3-{[(2R,3S,7Z)-3-{[4-fluoro-3-(trifluoromethyl)phe-nyl]carbamoyl}-7-(2,2,2-trifluoroethylidene)bi-cyclo[2.2.1]heptan-2-yl]carbamoyl}-4-methoxyphenyl)cyclo-hexane-1-carboxylic acid] | 0.134 µM
COc1ccc(C2CC3(CC(NC(=O)OC(C)(C)C)C3)C2)cc1C(=O)NC1C2CCC(/C2=C/C(F)(F)F)[C@@H]1C(=O)Nc1ccc(F)c(C(F)(F)F)c1 (stereo partly drawn) [Example 153, tert-butyl N-[6-(3-{[(2R,3S,7Z)-3-{[4-fluoro-3-(trifluoromethyl)phe-nyl]carbamoyl}-7-(2,2,2-trifluoroethylidene)bi-cyclo[2.2.1]heptan-2-yl]carbamoyl}-4-methoxyphenyl)spiro [3.3]heptan-2-yl]carbamate] | 1.62 µM
COc1ccc(C2CC3(CC(N)C3)C2)cc1C(=O)NC1C2CCC(/C2=C/C(F)(F)F)[C@@H]1C(=O)Nc1ccc(F)c(C(F)(F)F)c1 (stereo partly drawn) [Example 154, (2S,3R,7Z)-3-(5-{6-aminospiro[3.3]hept-an-2-yl}-2-methoxybenzamido)-N-[4-fluoro-3-(trifluoromethyl)phe-nyl]-7-(2,2,2-trifluoroethylidene)bi-cyclo[2.2.1]heptane-2-carboxamide] | 1.05 µM
COC(=O)c1ccc(F)cc1Cc1ccc(OC)c(C(=O)NC2C3CCC(/C3=C/C(F)(F)F)[C@@H]2C(=O)Nc2ccc(F)c(C(F)(F)F)c2)c1 (stereo partly drawn) [Example 156, methyl 4-fluoro-2-[(3-{[(2R,3S,7Z)-3-{[4-fluoro-3-(trifluoromethyl)phe-nyl]carbamoyl}-7-(2,2,2-trifluoroethylidene)bi-cyclo[2.2.1]heptan-2-yl]carbamoyl}-4-methoxyphenyl)meth-yl]benzoate] | 0.464 µM
COc1ccc(CCCO)cc1C(=O)N[C@H]1[C@@H](C(=O)Nc2ccc(F)c(C(F)(F)F)c2)[C@H]2CC[C@@H]1/C2=C\C(C)C [Example 157, (1R,2S,3R,4R,Z)—N-(4-fluoro-3-(trifluoromethyl)phenyl)-3-(5-(3-hydroxypropyl)-2-methoxybenzamido)-7-(2-methylpropylidene) bicyclo[2.2.1]heptane-2-carboxamide] | 0.054 µM
COc1ccc(CCC(C)(C)O)cc1C(=O)NC1C2CCC(/C2=C/C2CC(F)(F)C2)[C@@H]1C(=O)Nc1ccc(F)c(C(F)(F)F)c1 (stereo partly drawn) [Example 160, (2S,3R,7Z)-7-[(3,3-difluorocyclobutyl)methylidene]-N-[4-fluoro-3-(trifluoromethyl)phe-nyl]-3-[5-(3-hydroxy-3-methylbutyl)-2-methoxybenzamido] bicyclo[2.2.1]heptane-2-carboxamide] | 0.051 µM
COCC/C=C1\C2CCC1[C@H](C(=O)Nc1ccc(F)c(C(F)(F)F)c1)C2NC(=O)c1cc(CCC(C)(C)O)ccc1OC (some centres unmarked) [Example 162, (7Z)-N-[4-fluoro-3-(trifluoromethyl)phe-nyl]-3-[5-(3-hydroxy-3-methylbutyl)-2-methoxybenzamido]-7-(3-methoxypropylidene) bicyclo[2.2.1]heptane-2-carboxamide] | 1.24 µM
COc1ccc(CCCO)cc1C(=O)NC1C2CCC(/C2=C/C2CCOCC2)[C@@H]1C(=O)Nc1ccc(F)c(C(F)(F)F)c1 (some centres unmarked) [Example 165, (7Z)-N-[4-fluoro-3-(trifluoromethyl)phe-nyl]-3-[5-(3-hydroxypropyl)-2-methoxybenzamido]-7-[(oxan-4-yl)methylidene]bicy-clo[2.2.1]heptane-2-carboxamide] | 0.218 µM

More lines, in order of falling EC50, values ahead:

EC50 | SMILES
1.16 µM | COCC/C=C1\C2CCC1[C@H](C(=O)Nc1ccc(F)c(C(F)(F)F)c1)C2NC(=O)c1cc(CCCO)ccc1OC (some centres unmarked) [Example 161, (7Z)-N-[4-fluoro-3-(trifluoromethyl)phe-nyl]-3-[5-(3-hydroxypropyl)-2-methoxybenzamido]-7-(3-methoxypropylidene) bicyclo[2.2.1]heptane-2-carboxamide]
0.427 µM | COc1ccc(Cc2ccc(F)cc2)cc1C(=O)N[C@H]1[C@@H](C(=O)Nc2ccc(F)c(C(F)(F)F)c2)[C@H]2CC[C@@H]1/C2=C\C(F)(F)F [Example 155, (1R,2S,3R,4R,Z)—N-(4-fluoro-3-(trifluoromethyl)phenyl)-3-(5-(4-fluorobenzyl)-2-methoxybenzamido)-7-(2,2,2-trifluoroethylidene) bicyclo[2.2.1]heptane-2-carboxamide]
0.278 µM | COc1ccc(CCC(C)(C)O)cc1C(=O)NC1C2CCC(/C2=C/CC(C)(C)C)[C@@H]1C(=O)Nc1ccc(F)c(C(F)(F)F)c1 (some centres unmarked) [Example 163, (7Z)-7-(3,3-dimethylbutylidene)-N-[4-fluoro-3-(trifluoromethyl)phe-nyl]-3-[5-(3-hydroxy-3-methylbutyl)-2-methoxybenzamido] bicyclo[2.2.1]heptane-2-carboxamide]
0.234 µM | COc1ccc([C@H]2C[C@@H](O)C2)cc1C(=O)NC1C2CCC(/C2=C/C(F)(F)F)[C@@H]1C(=O)Nc1ccc(F)c(C(F)(F)F)c1 (stereo partly drawn) [Example 146, (2S,7Z)-N-[4-fluoro-3-(trifluoromethyl)phe-nyl]-3-{2-methoxy-5-[(1s,3s)-3-hydroxycyclobutyl]benz-amido}-7-(2,2,2-trifluoroethylidene)bi-cyclo[2.2.1]heptane-2-carboxamide]
0.084 µM | COc1ccc([C@H]2C[C@H](O)C2)cc1C(=O)NC1C2CCC(/C2=C/C(F)(F)F)[C@@H]1C(=O)Nc1ccc(F)c(C(F)(F)F)c1 (stereo partly drawn) [Example 145, (2S,3R,7Z)-N-[4-fluoro-3-(trifluoromethyl)phe-nyl]-3-{2-methoxy-5-[(1r,3r)-3-hydroxycyclobutyl]benzamido}-7-(2,2,2-trifluoroethylidene)bi-cyclo[2.2.1]heptane-2-carboxamide]
0.043 µM | COc1ccc(CCCO)cc1C(=O)NC1C2CCC(/C2=C/C2CC(F)(F)C2)[C@@H]1C(=O)Nc1ccc(F)c(C(F)(F)F)c1 (stereo partly drawn) [Example 159, (2S,3R,7Z)-7-[(3,3-difluorocyclobutyl)methylidene]-N-[4-fluoro-3-(trifluoromethyl)phe-yl]-3-[5-(3-hydroxypropyl)-2-methoxybenzamideo] bicyclo[2.2.1]heptane-2-carboxamide]
0.021 µM | COc1ccc([C@H]2C[C@@H](O)C2)cc1C(=O)NC1C2CCC(/C2=C/C2CC2)[C@@H]1C(=O)Nc1ccc(F)c(C(F)(F)F)c1 (stereo partly drawn) [Example 147, (2S,3R,7Z)-7-(cyclopropylmethyli-dene)-N-[4-fluoro-3-(trifluoromethyl)phe-nyl]-3-{2-methoxy-5-[(1r,3r)-3-hydroxycyclobutyl]benzamido}bicyclo [2.2.1]heptane-2-carboxamide]
0.009 µM | COc1ccc(CCC(C)(C)O)cc1C(=O)NC1C2CCC(/C2=C/C(C)C)[C@@H]1C(=O)Nc1ccc(F)c(C(F)(F)F)c1 (some centres unmarked) [Example 158, (7Z)-N-[4-fluoro-3-(trifluoromethyl)phe-nyl]-3-[5-(3-hydroxy-3-methylbutyl)-2-methoxybenzamido]-7-(2-methylpropylidene)bi-cyclo[2.2.1]heptane-2-carboxamide]
0.006 µM | COc1ccc([C@H]2C[C@H](O)C2)cc1C(=O)NC1C2CCC(/C2=C/C2CC2)[C@@H]1C(=O)Nc1ccc(F)c(C(F)(F)F)c1 (stereo partly drawn) [Example 148, (2S,3R,7Z)-7-(cyclopropylmethyli-dene)-N-[4-fluoro-3-(trifluoromethyl)phe-nyl]-3-{2-methoxy-5-[(1r,3r)-3-hydroxycyclobutyl]benzamido}bicyclo [2.2.1]heptane-2-carboxamide]
